Data from patent publication US20130225633A1, “PHENYL HETEROCYCLOALKYL GLUCOCORTICOID RECEPTOR MODULATORS” (Corcept Therapeutics, Inc., priority 2012, published 2013).

Columns and labels:
human recombinant GR = target: T1, human recombinant GR (Homo sapiens, UniProt P04150); assay: Human GR fluorescence polarisation (FP) binding assay (Example 23)
T1 construct: purchased PanVera P2812
T1 sequence (P04150 1-777): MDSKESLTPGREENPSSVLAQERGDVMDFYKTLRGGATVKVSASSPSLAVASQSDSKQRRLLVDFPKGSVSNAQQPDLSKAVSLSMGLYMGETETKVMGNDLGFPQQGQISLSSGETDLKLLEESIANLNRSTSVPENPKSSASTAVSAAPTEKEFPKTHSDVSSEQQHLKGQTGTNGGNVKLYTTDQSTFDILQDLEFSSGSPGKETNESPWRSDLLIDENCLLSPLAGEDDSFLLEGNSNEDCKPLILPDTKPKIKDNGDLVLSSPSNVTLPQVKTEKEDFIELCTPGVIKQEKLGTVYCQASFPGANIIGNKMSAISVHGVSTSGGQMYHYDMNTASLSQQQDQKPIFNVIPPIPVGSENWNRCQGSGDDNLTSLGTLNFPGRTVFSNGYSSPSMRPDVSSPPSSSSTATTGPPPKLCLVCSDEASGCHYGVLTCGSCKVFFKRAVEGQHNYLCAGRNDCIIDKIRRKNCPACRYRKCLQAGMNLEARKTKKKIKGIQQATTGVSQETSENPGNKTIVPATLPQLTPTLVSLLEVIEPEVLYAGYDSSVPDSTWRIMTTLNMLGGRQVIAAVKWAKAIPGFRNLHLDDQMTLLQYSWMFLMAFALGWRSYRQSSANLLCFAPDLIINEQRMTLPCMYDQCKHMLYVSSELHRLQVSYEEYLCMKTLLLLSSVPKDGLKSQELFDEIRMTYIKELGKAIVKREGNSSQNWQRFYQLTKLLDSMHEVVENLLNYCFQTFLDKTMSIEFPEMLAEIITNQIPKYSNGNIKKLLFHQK
Description: The following is a description of a FP assay for measuring compound inhibition of labelled glucocorticoid binding to the human recombinant GR.
The binding affinity of test compounds was determined using a FP binding assay using human recombinant GR (PanVera P2812) and a fluorescent labelled glucocorticoid ligand (Fluorome GS Red) (PanVera P2894). The presence of inhibitors prevents the formation of a GS Red/GR complex resulting in a decrease in the measured polarisation value. The change in polarisation value in the presence of test compounds is used to calculate the binding affinity of the compound for GR.
This assay was performed in 384 well, black, round-bottom, polypropylene micro titre plates in a final volume of 20 μl. The assay contained 5 μl 1 nM GR (final concentration), 5 μl 0.5 nM Fluorome GS Red (final concentration) in the presence of 10 μl test compounds. Positive control wells (high polarisation) receive, 10 μl 2% (v:v) DMSO vehicle (1% (v/v) final concentration)+5 μl 1 nM GR and 5 μl 0.5 nM Fluorome GS Red. […] Assay blank background wells (used for normalisation) receive 15 μl 1×GS screening buffer+5 μl GR.
For the IC50 determination (concentration of compound that displaces 50% of the bound GS Red), compounds were tested at eight different concentrations in duplicate in two independently performed experiments. Compounds were prepared as solubilised solids at 10 mM in DMSO. On the day of assay, an 8 point half-log serial dilution (55 μl DMSO+25 μl compound solution) was prepared. A 1:50 dilution (1 μl compound solution+49 μl 1×GR screening buffer) was prepared for each compound. The compounds were prepared at 2× final assay concentration.
The plates were mixed and incubated for 4 hour at room temperature. FP was measured using an Envision Excite plate reader with 535 nm excitation and 590 nm emission interference filters.
Milli-polarisation (mP) values were calculated using the below equation—
where S and P are assay blank background subtracted fluorescence units, G=G-factor (1.07).
Compound IC50 values were calculated by plotting a [compound] v. % inhibition curve and fitting the data to a 4-parameter logistic fit equation.
Reagents. 10×GR screening buffer (100 mM potassium phosphate pH 7.4, 200 mM Na2MoO4, 1 mM EDTA, 20% (v/v) DMSO). To prepare 1×GR screening buffer, combine 1 ml 10×GR screening buffer (PanVera P2814)+1 ml stabilising peptide (PanVera P2815)+7.95 ml 4° C. MQ water. Add 50 μl 1M DTT, vortex and place on ice until use.

[1] = target: T2, GR (TAT induction in HepG2 cells) (Homo sapiens, UniProt P04150); assay: cell-based; conditions: read-out: GR functional Ki
T2 construct: host or cells: HepG2 (human hepatocellular carcinoma)
T2 sequence (P04150 1-777): T1 sequence (P04150 1-777)
Description: Glucocorticoid mediated activation of TAT occurs by transactivation of glucocorticoid response elements in the TAT promoter by glucocorticoid receptor-agonist complex.
TAT activity was measured as outlined in the literature by A. Ali et al., J. Med. Chem., 2004, 47, 2441-2452.
HepG2 cells were cultured using MEME media supplemented with 10% (v/v) foetal bovine serum; 2 mM L-glutamine and 1% (v/v) NEAA at 37° C., 5%/95% (v/v) CO2/air. The HepG2 cells were counted and adjusted to yield a density of 0.125×10^6 cells/ml in RPMI 1640 without phenol red, 10% (v/v) charcoal stripped FBS, 2 mM L-glutamine and seeded at 25,000 cells/well in 200 μl into 96 well, sterile, tissue culture micro titre plates, and incubated at 37° C., 5% CO2 for 24 hours
Growth media was removed and replaced with assay media {RPMI 1640 without phenol red, 2 mM L-glutamine+10 μM forskolin}. […] Compounds were serially half log diluted in 100% (v/v) dimethylsupfoxide from a 10 mM stock.
HepG2 cells were then lysed with 30 μl of cell lysis buffer containing a protease inhibitor cocktail for 15 minutes at 4° C. 155 μl of substrate mixture was then added containing 5.4 mM Tyrosine sodium salt, 10.8 mM alpha ketoglutarate and 0.06 mM pyridoxal 5′ phosphate in 0.1M potassium phosphate buffer (pH 7.4). After 2 hours incubation at 37° C. the reaction was terminated by the addition of 15 μl of 10M aqueous potassium hydroxide solution, and the plates incubated for a further 30 minutes at 37° C. The TAT activity product was measured by absorbance at λ 340 nm.
[compound] and fitting the data to a 4 parameter logistic equation.

Ki (human recombinant GR)	Ki [1]	SMILES
< 0.5 nM	50 to 100 nM	COC[C@]12Cc3cnn(-c4ccc(F)cc4)c3C=C1CCN(S(=O)(=O)c1ccc(N3CCCCC3)cc1)C2 [Example 20, (R)-1-(4-Fluoro-phenyl)-6-[4-(piperidin-1-yl)-benzenesulfonyl]-4a-methoxymethyl-4,4a,5,6,7,8-hexahydro-1H-1,2,6-triaza-cyclopenta[b]naphthalene]
< 0.5 nM	> 100 nM	COC[C@]12Cc3cnn(-c4ccc(F)cc4)c3C=C1CCN(S(=O)(=O)c1ccc(N3CCC[C@H]3C)cc1)C2 [Example 17, (R)-1-(4-Fluoro-phenyl)-6-[4-((R)-2-methylpyrrolidin-1-yl)-benzenesulfonyl]-4a-methoxymethyl-4,4a,5,6,7,8-hexahydro-1H-1,2,6-triaza-cyclopenta[b]naphthalene]
< 0.5 nM	> 100 nM	COC[C@]12Cc3cnn(-c4ccc(F)cc4)c3C=C1CCN(S(=O)(=O)c1ccc(N3CC[C@H](OC)C3)cc1)C2 [Example 19, (R)-1-(4-Fluoro-phenyl)-6-[4-((S)-3-methoxypyrrolidin-1-yl)-benzenesulfonyl]-4a-methoxymethyl-4,4a,5,6,7,8-hexahydro-1H-1,2,6-triaza-cyclopenta[b]naphthalene]
< 0.5 nM	> 100 nM	COC[C@]12Cc3cnn(-c4ccc(F)cc4)c3C=C1CCN(S(=O)(=O)c1ccc(N3CCC(F)(F)C3)cc1)C2 [Example 16, (R)-1-(4-Fluoro-phenyl)-6-[4-(3,3-difluoropyrrolidin-1-yl)-benzenesulfonyl]-4a-methoxymethyl-4,4a,5,6,7,8-hexahydro-1H-1,2,6-triaza-cyclopenta[b]naphthalene]
< 0.5 nM	> 100 nM	COC[C@]12Cc3cnn(-c4ccc(F)cc4)c3C=C1CCN(S(=O)(=O)c1ccc(N3CCC(C)(C)C3)cc1)C2 [Example 21, (R)-1-(4-Fluoro-phenyl)-6-[4-(3,3-dimethylpyrrolidin-1-yl)-benzenesulfonyl]-4a-methoxymethyl-4,4a,5,6,7,8-hexahydro-1H-1,2,6-triaza-cyclopenta[b]naphthalene]
0.5 to 1 nM	50 to 100 nM	COC[C@@H]1CCCN1c1ccc(S(=O)(=O)N2CCC3=Cc4c(cnn4-c4ccc(F)cc4)C[C@]3(COC)C2)cc1 [Example 18, (R)-1-(4-Fluoro-phenyl)-6-[4-((S)-2-(methoxymethyl)pyrrolidin-1-yl)-benzenesulfonyl]-4a-methoxymethyl-4,4a,5,6,7,8-hexahydro-1H-1,2,6-triaza-cyclopenta[b]naphthalene]
